Results on three compounds are retold here after PMC9855333, “1-(Arylsulfonyl-isoindol-2-yl)piperazines as 5-HT6R Antagonists: Mechanochemical Synthesis, In Vitro Pharmacological Properties and Glioprotective Activity” (Biomolecules, 2022).

Where “and” joins values, the source holds several entries; their conditions need not be identical. Equal entries are not always repeated.

Sequence of 5-HT6R (P50406 whole entry): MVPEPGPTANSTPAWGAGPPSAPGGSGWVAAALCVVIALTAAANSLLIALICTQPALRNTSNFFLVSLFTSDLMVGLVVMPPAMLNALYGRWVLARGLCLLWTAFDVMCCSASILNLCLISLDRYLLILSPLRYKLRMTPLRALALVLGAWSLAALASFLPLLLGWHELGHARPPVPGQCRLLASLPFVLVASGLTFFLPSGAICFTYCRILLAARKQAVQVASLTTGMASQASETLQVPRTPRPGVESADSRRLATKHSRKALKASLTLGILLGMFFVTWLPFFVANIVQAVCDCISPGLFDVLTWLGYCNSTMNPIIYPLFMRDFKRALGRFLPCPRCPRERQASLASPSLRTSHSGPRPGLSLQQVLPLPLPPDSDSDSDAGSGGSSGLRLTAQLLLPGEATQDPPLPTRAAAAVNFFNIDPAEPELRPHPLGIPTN

One test concerns the target 5-HT6R (Homo sapiens, UniProt P50406). Kind of test: Radioligand binding, [3H]-LSD displacement, HEK-293 cells. On the set-up: expressed in transfected cells. The following applies: Table 1; HEK293 cells; three independent binding experiments; read-out: Ki [nM] ± SEM at the 5-HT6R. As to the method:
(§1) All experiments were performed in HEK-293 cells, which stably express the human 5-HT1A, 5-HT6, 5-HT7b, and D2L receptors, or using CHO-K1 cells expressing human serotonin 5-HT2A receptor, following the previously reported procedures. For displacement studies, the following radioligands (PerkinElmer, USA) at given concentrations were used at: 2.5 nM [^3H]-8-OH-DPAT (135.2 Ci/ mmol); 1 nM [^3H]-ketanserin (53.4 Ci/mmol); 2 nM [^3H]-LSD (83.6 Ci/mmol); 0.8 nM [^3H]-5-CT (39.2 Ci/mmol) or 2.5 nM [^3H]-raclopride (76.0 Ci/mmol) for 5-HT1A, 5-HT2A, 5-HT6, 5-HT7b and D2L receptors, respectively. All tested compounds were evaluated in triplicate at 7 concentrations (10^−10–10^−4 M). The inhibition constants (Ki) were calculated from the Cheng–Prusoff equation [25]. A detailed description is reported in the Supporting Information.
All synthesized compounds were evaluated in ^3[H]-LSD competition binding experiments for their affinity for 5-HT6R expressed in HEK-293 cells (Table 1). Embedding the sulfonamide moiety into an unsubstituted isoindoline scaffold was sufficient to provide potent compounds 3a and 3e. […] This effect might result from the favorable localization of the bromine atom at the isoindoline fragment, which enabled compound 3k to adopt an optimal position in the receptor binding pocket via the formation of hydrophobic/steric interactions.
(§2) 1. Procedure for radioligand binding assay
(§3) All experiments were carried out according to the previously published procedures. HEK293 cells stably expressing human 5-HT1A, 5-HT6, 5-HT7b and D2L receptors (prepared with the use of Lipofectamine 2000) or CHO-K1 cells with plasmid containing the sequence coding for the human serotonin 5-HT2A receptor (Perkin Elmer) were maintained at 37 °C in a humidified atmosphere containing 5% CO2 and grown in Dulbecco’s Modified Eagle’s Medium containing 10% dialyzed fetal bovine serum and 500 μg/ml G418 sulfate. For membrane preparation, cells were cultured in 150 cm2 flasks, grown to 90% confluence, washed twice with pre-warmed to 37 °C phosphate buffered saline (PBS) and centrifuged (200 × g) in PBS containing 0.1 mM EDTA and 1 mM dithiothreitol. Prior to membrane preparation, pellets were stored at –80 °C. Cell pellets were thawed and homogenized in 10 volumes of assay buffer using an Ultra Turrax tissue homogenizer and centrifuged twice at 35,000 × g for 15 min at 4 °C, with incubation for 15 min at 37 °C between the centrifugations. The composition of the assay buffers was experimentally selected to achieve the […]
5-HT1AR: 50 mM Tris HCl, 0.1 mM EDTA, 4 mM MgCl2, 10 μM pargyline and 0.1% ascorbate; 5-HT2AR: 50 mM Tris HCl, 0.1 mM EDTA, 4 mM MgCl2 and 0.1% ascorbate;
5-HT6R: 50 mM Tris HCl, 0.5 mM EDTA and 4 mM MgCl2; 5-HT7bR: 50 mM Tris HCl, 4 mM MgCl2, 10 μM pargyline and 0.1% ascorbate; D2LR: 50 mM Tris HCl, 1 mM EDTA, 4 mM MgCl2, 120 mM NaCl, 5 mM KCl, 1.5 mM CaCl2 and 0.1% ascorbate).
All assays were carried out in a total volume of 200 μL in 96-well plates for 1 h at 37 °C, except 5-HT1AR and 5-HT2AR which were incubated at room temperature and 27 °C, respectively.
The process of equilibration was terminated by rapid filtration through Unifilter plates with a 96-well cell harvester and radioactivity retained on the filters was quantified on a Microbeta plate reader (PerkinElmer, USA). For displacement studies the assay samples contained as radioligands (PerkinElmer, USA): 2.5 nM [3H]-8-OH-DPAT (135.2 Ci/ mmol) for 5-HT1AR; 1 nM [3H]-ketanserin (53.4 Ci/mmol) for 5-HT2AR; 2 nM [3H]-LSD (83.6 Ci/mmol) for 5-HT6R; 0.8 nM [3H]-5-CT (39.2 Ci/mmol) for 5-HT7R or 2.5 nM [3H]-raclopride (76.0 Ci/mmol) for D2LR. Non-specific binding was defined in the presence of 10 μM of 5-HT in 5-HT1AR and 5-HT7R binding experiments, 20 μM of mianserin for 5-HT2AR, 10 μM of methiothepine for 5-HT6R or 10 μM of haloperidol for D2LR bidning assays. Each compound was tested in triplicate at 7 concentrations (10-10–10-4 M). The inhibition constants (Ki) were calculated […]
Regarding `O=S(=O)(c1cccc(N2CCNCC2)c1)N1Cc2ccccc2C1` [3e, 2-{[3-(Piperazin-1-yl)phenyl]sulfonyl}isoindoline], the Ki is less than 5 nM.

As for `O=S(=O)(c1cccc(N2CCNCC2)c1)N1Cc2cccc(Cl)c2C1` [3f, 4-Chloro-2-{[3-(piperazin-1-yl)phenyl]sulfonyl}isoindoline], the inhibition constant (Ki) is < 5 nM and 1 nM.

Regarding `O=S(=O)(c1cccc(N2CCNCC2)c1)N1Cc2cccc(Br)c2C1` [3g, 4-Bromo-2-{[3-(piperazin-1-yl)phenyl]sulfonyl}isoindoline], the Ki was < 5 nM and 1 nM.

The test is the same for the next values; noted with them: Table 2; mean ± SEM, three independent binding experiments; read-out: 5-HT6R Ki.
On to `O=S(=O)(c1cccc(N2CCNCC2)c1)N1Cc2ccccc2C1` [3e, 2-{[3-(Piperazin-1-yl)phenyl]sulfonyl}isoindoline], for which the inhibition constant (Ki) was 2 ± 0.2 nM.

For the compound `O=S(=O)(c1cccc(N2CCNCC2)c1)N1Cc2cccc(Cl)c2C1` [3f, 4-Chloro-2-{[3-(piperazin-1-yl)phenyl]sulfonyl}isoindoline], the Ki amounted to 1 ± 0.2 nM.

For the compound `O=S(=O)(c1cccc(N2CCNCC2)c1)N1Cc2cccc(Br)c2C1` [3g, 4-Bromo-2-{[3-(piperazin-1-yl)phenyl]sulfonyl}isoindoline], the Ki stood at 1 ± 0.4 nM.

In the next test the target is T1, human 5-HT1A receptor (Homo sapiens, UniProt P08908).
T1 construct: expressed in transfected cells
T1 sequence (P08908 1-422): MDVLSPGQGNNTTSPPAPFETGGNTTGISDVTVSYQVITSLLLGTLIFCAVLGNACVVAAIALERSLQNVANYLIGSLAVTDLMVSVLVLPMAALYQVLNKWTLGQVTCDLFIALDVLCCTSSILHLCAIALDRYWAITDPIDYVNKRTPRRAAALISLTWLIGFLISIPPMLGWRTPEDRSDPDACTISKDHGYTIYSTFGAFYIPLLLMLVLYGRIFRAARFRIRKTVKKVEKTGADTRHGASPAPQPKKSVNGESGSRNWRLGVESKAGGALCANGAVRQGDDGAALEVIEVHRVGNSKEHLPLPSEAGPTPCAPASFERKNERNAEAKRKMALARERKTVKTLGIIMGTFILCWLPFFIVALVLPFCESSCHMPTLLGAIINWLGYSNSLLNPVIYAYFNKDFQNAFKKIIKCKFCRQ
The test is described as follows: Radioligand binding, [3H]-8-OH-DPAT displacement, HEK-293 cells. Conditions: mean ± SEM, three independent binding experiments; read-out: Ki [nM] 5-HT1AR. On the procedure:
as §1, §2
as §3, with “°C.” for “°C. Cell pellets were thawed and homogenized in 10 volumes of assay buffer using an Ultra Turrax tissue homogenizer and centrifuged twice at 35,000 × g for 15 min at 4 °C, with incubation for 15 min at 37 °C between the centrifugations. The composition of the assay buffers was experimentally selected to achieve the”
(§4) The process of equilibration was terminated by rapid filtration through Unifilter plates with a 96-well cell harvester and radioactivity retained on the filters was quantified on a Microbeta plate reader (PerkinElmer, USA). […] The inhibition constants (Ki) were calculated from the Cheng-Prusoff equation [4].
For the compound `O=S(=O)(c1cccc(N2CCNCC2)c1)N1Cc2ccccc2C1` [3e, 2-{[3-(Piperazin-1-yl)phenyl]sulfonyl}isoindoline], the Ki was found to be 951 ± 120 nM.

On to `O=S(=O)(c1cccc(N2CCNCC2)c1)N1Cc2cccc(Cl)c2C1` [3f, 4-Chloro-2-{[3-(piperazin-1-yl)phenyl]sulfonyl}isoindoline], for which the Ki turned out to be 385 ± 71 nM.

`O=S(=O)(c1cccc(N2CCNCC2)c1)N1Cc2cccc(Br)c2C1` [3g, 4-Bromo-2-{[3-(piperazin-1-yl)phenyl]sulfonyl}isoindoline]: the inhibitory constant (Ki) is 680 ± 33 nM.

The next test deals with T2, human D2L receptor (Homo sapiens, UniProt P14416).
T2 construct: expressed in transfected cells
T2 sequence (P14416 whole entry): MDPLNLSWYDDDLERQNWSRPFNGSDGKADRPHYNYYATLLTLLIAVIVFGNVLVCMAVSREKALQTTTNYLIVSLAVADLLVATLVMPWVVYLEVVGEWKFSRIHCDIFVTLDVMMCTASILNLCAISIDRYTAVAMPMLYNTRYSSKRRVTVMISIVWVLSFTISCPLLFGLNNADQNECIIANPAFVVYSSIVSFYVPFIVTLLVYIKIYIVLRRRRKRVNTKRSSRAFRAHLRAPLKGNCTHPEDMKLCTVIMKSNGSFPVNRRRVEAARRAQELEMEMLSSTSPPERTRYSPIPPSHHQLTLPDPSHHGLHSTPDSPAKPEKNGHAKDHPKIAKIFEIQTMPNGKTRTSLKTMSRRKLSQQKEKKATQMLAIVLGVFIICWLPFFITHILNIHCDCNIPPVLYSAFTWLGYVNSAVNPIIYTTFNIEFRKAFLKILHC
The test is described as follows: Radioligand binding, [3H]-raclopride displacement, HEK-293 cells. The following applies: mean ± SEM, three independent binding experiments; read-out: Ki [nM] D2. On the procedure: as §1, §2
as §3, with “°C.” for “°C. Cell pellets were thawed and homogenized in 10 volumes of assay buffer using an Ultra Turrax tissue homogenizer and centrifuged twice at 35,000 × g for 15 min at 4 °C, with incubation for 15 min at 37 °C between the centrifugations. The composition of the assay buffers was experimentally selected to achieve the”
as §4
Turning to `O=S(=O)(c1cccc(N2CCNCC2)c1)N1Cc2ccccc2C1` [3e, 2-{[3-(Piperazin-1-yl)phenyl]sulfonyl}isoindoline], the Ki amounted to 3420 ± 415 nM.

On to `O=S(=O)(c1cccc(N2CCNCC2)c1)N1Cc2cccc(Cl)c2C1` [3f, 4-Chloro-2-{[3-(piperazin-1-yl)phenyl]sulfonyl}isoindoline], for which the inhibition constant (Ki) is 2030 ± 299 nM.

Turning to `O=S(=O)(c1cccc(N2CCNCC2)c1)N1Cc2cccc(Br)c2C1` [3g, 4-Bromo-2-{[3-(piperazin-1-yl)phenyl]sulfonyl}isoindoline], the Ki turned out to be 2440 ± 324 nM.
